System: 598228-144-R-J1-PDC complex spheroid viability
Test: Anticancer human tumor 598228-144-R-J1-PDC patient-derived serous endometrial adenocarcinoma cell line growth inhibition [GQUAD]
Details: for IC50: curve of first compound; for viability, T/C: stronger effect = lower value
Excerpt: DNA G-quadruplex Stabilizer Agents in Combinations in Complex Spheroids
A high-throughput screen of multi-cell type tumor spheroids was designed to identify active combinations of DNA G-quadruplex stabilizer agents and targeted small molecules. Complex spheroids include a stromal component modeled by human endothelial cells (HUVEC) and fibroblasts modeled by human mesenchymal stem cells (MSCs). The concentration ranges selected for each drug and investigational agent were based upon clinically achievable concentrations if the clinical Cmax of the agent was known.
Compounds. The drugs and investigational agents: pidnarulex (CX-5461; NSC782164), APTO-253 (NSC789042), BRACO-19 (NSC847499), peposertib (NSC802822), ceralasertib (NSC780249), elimusertib (NSC800525), camonsertib (NSC841442), AZD-1390 (NSC803789), olaparib (NSC753686), talazoparib (NSC767125), ART-558 (NSC835418), sotorasib (NSC818433), MRTX-1133 (NSC836407), SN-38 (NSC673596), topotecan (NSC609699), etoposide (NSC141540), doxorubicin (NSC123127), gemcitabine (NSC613327), 5-fluorouracil (NSC19893), paclitaxel (NSC125973), vemurafenib (NSC761431), panobinostat (NSC761190), R-306465 (JNJ-16241199; NSC773264), adavosertib (NSC754352), TP-3654 (NSC805149), carboplatin (NSC241240), KSQ-4279 (NSC840948), and staurosporine (NSC755774) were obtained from the National Cancer Institute (NCI) Developmental Therapeutics Program Chemical Repository (34). The FDA-approved anticancer drug set is available from the NCI Developmental Therapeutics Program. […] The stock solutions were prepared in dimethyl sulfoxide (DMSO, Sigma-Aldrich, St. Louis, MO, cat. D2650) at 800-fold the tested concentration and stored at -70 degrees C prior to their use. All drugs and investigational agents were tested over a range starting from a high concentration at or near the clinical Cmax and decreasing in half-log increments. If the clinical Cmax for an agent had not been determined, the highest concentration tested was 10 microM.
2.3 Cell Culture. All cells were maintained in an incubator at 37 degrees C and 5% CO2 with 95% humidity. The PDC lines were cultured according to standard operating procedures established by the NCI PDMR. All PDCs were thawed and cultured in Matrigel-coated flasks prepared with a working solution of 1X Ham's F-12 nutrient mix, without supplementation (Invitrogen, cat. 11765054), 100 U/mL penicillin-streptomycin (Invitrogen, cat. 15140122), and 2.5% Matrigel (Corning Inc., cat. 354248) for the first three passages. The 857933-349-R-J2-PDC line was cultured in 6C/Colon 1B media, which includes advanced DMEM/F-12 (Thermo Fisher Scientific, cat. 12634028), 10 mM HEPES (Thermo Fisher Scientific, cat. 15630080), 1X GlutaMAX supplement (Thermo Fisher Scientific, cat. 35050061), 0.1 mg/mL primocin (InvivoGen, cat. ant-pm-2), 10% defined fetal bovine serum, heat inactivated (HyClone Laboratories Inc., cat. SH30070.03HI), 50% L-WRN conditioned media (ATCC, cat. CRL-3276), 1.25 mM N-Acetyl-L-cysteine (Sigma-Aldrich, cat. A9165), 10 mM nicotinamide (Sigma-Aldrich, cat. N0636), 1X B-27 supplement (Thermo Fisher Scientific, cat. 17504044), 1X N-2 supplement (Thermo Fisher Scientific, cat. 17502048), 10 microM Y-27632 dihydrochloride (Tocris Bioscience, cat. 1254), and 50 ng/mL human EGF recombinant protein (Thermo Fisher Scientific, cat. PHG0311). The 485176-168-R4-J1-PDC line was cultured in Panc media, which includes all 6C/Colon 1B media components plus 100 ng/mL human FGF-10 (Thermo Fisher Scientific, cat. 100-26), 500 nM SB-431542 (Selleckchem, cat. S1067), and gastrin (Tocris, cat. 3006).
[…]

[1] = second compound 0.0316 µM, first compound 0.0316 µM
[2] = second compound 0.0316 µM, first compound 0.1 µM
[3] = second compound 0.0316 µM, first compound 0.316 µM
[4] = second compound 0.0316 µM, first compound 1 µM
[5] = second compound 0.0316 µM, first compound 3.16 µM
[6] = second compound 0.0316 µM, first compound 10 µM
[7] = second compound 0.1 µM, first compound 0.0316 µM
[8] = second compound 0.1 µM, first compound 0.1 µM
[9] = second compound 0.1 µM, first compound 0.316 µM
[10] = second compound 0.1 µM, first compound 1 µM
[11] = second compound 0.1 µM, first compound 3.16 µM
[12] = second compound 0.1 µM, first compound 10 µM
[13] = second compound 0.316 µM, first compound 0.0316 µM
[14] = second compound 0.316 µM, first compound 0.1 µM
[15] = second compound 0.316 µM, first compound 0.316 µM
[16] = second compound 0.316 µM, first compound 1 µM
[17] = second compound 0.316 µM, first compound 3.16 µM
[18] = second compound 0.316 µM, first compound 10 µM
[19] = second compound 1 µM, first compound 0.0316 µM
[20] = second compound 1 µM, first compound 0.1 µM
[21] = second compound 1 µM, first compound 0.316 µM
[22] = second compound 1 µM, first compound 1 µM
[23] = second compound 1 µM, first compound 3.16 µM
[24] = second compound 1 µM, first compound 10 µM
[25] = second compound 3.16 µM, first compound 0.0316 µM
[26] = second compound 3.16 µM, first compound 0.1 µM
[27] = second compound 3.16 µM, first compound 0.316 µM
[28] = second compound 3.16 µM, first compound 1 µM
[29] = second compound 3.16 µM, first compound 3.16 µM
[30] = second compound 3.16 µM, first compound 10 µM
[31] = second compound 10 µM, first compound 0.0316 µM
[32] = second compound 10 µM, first compound 0.1 µM
[33] = second compound 10 µM, first compound 0.316 µM
[34] = second compound 10 µM, first compound 1 µM
[35] = second compound 10 µM, first compound 3.16 µM
[36] = second compound 10 µM, first compound 10 µM
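Also: spheroids exposed to the agents for one week before reading.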
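For viability, T/C in this document: percent of vehicle DMSO control viability so 100% = untreated growth.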

## C#Cc1c(F)ccc2cc(O)cc(-c3ncc4c(N5CC6CCC(C5)N6)nc(OCC56CCCN5CC(F)C6)nc4c3F)c12 (centres undefined) + CN(C)c1ccc(Nc2c3ccc(NC(=O)CCN4CCCC4)cc3nc3cc(NC(=O)CCN4CCCC4)ccc23)cc1
Second compound 0.0316 µM
  IC50: > 10 µM
Second compound 0.1 µM
  IC50: > 10 µM
Second compound 0.316 µM
  IC50: > 10 µM
Second compound 1 µM
  IC50: > 10 µM
Second compound 3.16 µM
  IC50: > 10 µM
Second compound 10 µM
  IC50: 4.61 µM
[1]
  viability, T/C: 92.2%
[2]
  viability, T/C: 104%
[3]
  viability, T/C: 104%
[4]
  viability, T/C: 88.5%
[5]
  viability, T/C: 88.9%
[6]
  viability, T/C: 101%
[7]
  viability, T/C: 103%
[8]
  viability, T/C: 118%
[9]
  viability, T/C: 104%
[10]
  viability, T/C: 100%
[11]
  viability, T/C: 88.5%
[12]
  viability, T/C: 94.9%
[13]
  viability, T/C: 102%
[14]
  viability, T/C: 94.1%
[15]
  viability, T/C: 115%
[16]
  viability, T/C: 83.5%
[17]
  viability, T/C: 102%
[18]
  viability, T/C: 88%
[19]
  viability, T/C: 87%
[20]
  viability, T/C: 102%
[21]
  viability, T/C: 110%
[22]
  viability, T/C: 104%
[23]
  viability, T/C: 98.9%
[24]
  viability, T/C: 92.9%
[25]
  viability, T/C: 106%
[26]
  viability, T/C: 101%
[27]
  viability, T/C: 93.7%
[28]
  viability, T/C: 89.8%
[29]
  viability, T/C: 83.3%
[30]
  viability, T/C: 84.1%
[31]
  viability, T/C: 86.1%
[32]
  viability, T/C: 89.3%
[33]
  viability, T/C: 93.9%
[34]
  viability, T/C: 66%
[35]
  viability, T/C: 64.2%
[36]
  viability, T/C: 28.7%

## C=CC(=O)N1CCN(c2nc(=O)n(-c3c(C)ccnc3C(C)C)c3nc(-c4c(O)cccc4F)c(F)cc23)C(C)C1 (centres undefined) + CN(C)c1ccc(Nc2c3ccc(NC(=O)CCN4CCCC4)cc3nc3cc(NC(=O)CCN4CCCC4)ccc23)cc1
Second compound 0.0316 µM
  IC50: > 10 µM
Second compound 0.1 µM
  IC50: > 10 µM
Second compound 0.316 µM
  IC50: > 10 µM
Second compound 1 µM
  IC50: > 10 µM
Second compound 3.16 µM
  IC50: > 10 µM
Second compound 10 µM
  IC50: > 10 µM
[1]
  viability, T/C: 94.4%
[2]
  viability, T/C: 105%
[3]
  viability, T/C: 101%
[4]
  viability, T/C: 120%
[5]
  viability, T/C: 122%
[6]
  viability, T/C: 122%
[7]
  viability, T/C: 93.6%
[8]
  viability, T/C: 103%
[9]
  viability, T/C: 122%
[10]
  viability, T/C: 122%
[11]
  viability, T/C: 119%
[12]
  viability, T/C: 109%
[13]
  viability, T/C: 97.8%
[14]
  viability, T/C: 112%
[15]
  viability, T/C: 105%
[16]
  viability, T/C: 123%
[17]
  viability, T/C: 140%
[18]
  viability, T/C: 110%
[19]
  viability, T/C: 80.8%
[20]
  viability, T/C: 105%
[21]
  viability, T/C: 103%
[22]
  viability, T/C: 121%
[23]
  viability, T/C: 135%
[24]
  viability, T/C: 93.8%
[25]
  viability, T/C: 93.5%
[26]
  viability, T/C: 111%
[27]
  viability, T/C: 114%
[28]
  viability, T/C: 117%
[29]
  viability, T/C: 132%
[30]
  viability, T/C: 121%
[31]
  viability, T/C: 79.6%
[32]
  viability, T/C: 85.5%
[33]
  viability, T/C: 115%
[34]
  viability, T/C: 115%
[35]
  viability, T/C: 124%
[36]
  viability, T/C: 73%

— PubChem BioAssay AID2060506 (Molecular Pharmacology Branch, DTP, NCI, 2025)
